Assay results taken from patent publication US20180353539A1, “METAL COMPLEXES AS PHARMACEUTICALS FOR TREATMENT AND PREVENTION OF CANCER AND INFLAMMATORY DISEASES” (UNIVERSITY OF SOUTHERN CALIFORNIA, priority 2017, published 2018).

How the values were obtained:
liver cancer = assay: Case Study 17; assay type: in vivo, human
Method: A person with chronic hepatitis C presented symptoms of abdominal pain. […] They had also been diagnosed with type 2 diabetes three years prior. […] Within 5 days their abdominal pain disappeared, and […] general health improved. […] Their cancer related markers included: AFP: 678 IU/L, GOP: 146 IU/L, GPT: 126 IU/L, and GGT: 124 IU/L. The patient's blood glucose level was 6.7 mmol/L. For the next 90 days, the patient took 50 mg of zinc iodide orally in capsule form 3 times/day. […] Their cancer related markers included: AFP: 107 IU/L, GOP: 195 IU/L, GPT: 69 IU/L, and GGT: 115 IU/L. The patient's blood glucose level was 7.4 mmol/L.

[1] = test system: esophageal cancer with multiple lymphatic metastases; assay: Case Study 10; assay type: in vivo, human
Method: A person was diagnosed with esophageal cancer with multiple lymphatic metastases. Their blood chemistry profile was normal, but their CEA levels were 6.7 ng/mL. The patient presented symptoms of extreme fatigue, difficult swallowing, chest pains, fever and weight loss. An endoscopy reveled a 4.2 cm×3.7 cm lesion on their esophagus. The tumor had poorly differentiated adenocarcinoma. […] The patient underwent treatments of 200 mg of zinc iodide mixing with 1000 mL of 0.9% sodium chloride solution and in 10 mL of DMSO, 6 times/week for 4 weeks. […] They also stopped steroid treatment. […] After 24 days of the infusion treatment, they began taking 50 mg Zinc Iodide capsules, 3 times/day for 90 days.

[2] = test system: adenocarcinoma of the pancreatic head; assay: Case Study 6; assay type: in vivo, human; set-up: total bilirubin: unit not given here
Method: A person had symptoms of weight loss and abdominal pain over a 2-month period. […] At the head, there was a 38-mm×42 mm mass detected. In addition, their intrahepatic billiard tree was dilated. The patient was given 125 mg of Zinc Iodide mixing with 1000 ml of sodium chloride 0.9% and 10 ml of DMSO through infusion daily for 20 days. […] They gained 4 kg of body weight. […] The patient is symptom free.

[3] = test system: prostate cancer with diffuse metastases; assay: Case Study 7; assay type: in vivo, human
Method: A patient had prostate cancer with diffuse metastases, along with severe leg pain. They underwent hormonal therapy, until they developed severe bone pain. They took voltaren injections and solumedrol infusions to alleviate the pain. […] The patient was weak and lost 5 kg of weight in a month. They began the treatment with 125 mg of Zinc Iodide mixing with 1000 ml of sodium chloride 0.9% and 10 ml of DMSO through infusion. […] Their RBC, hemoglobin and serum calcium levels all normalized; and their PSA decrease dramatically to 40 ng/mL. Their quality of life improved greatly, and they had no symptoms.

cholangiocarcinoma = assay: Case Study 9; assay type: in vivo, human; set-up: total bilirubin: unit not given here
From the text: A person presented with jaundice, abdominal discomfort and lack of appetite. They could not eat or drink properly. Over the last 3 months, their weight decreased by 8 kg. […] There was also a hypodense lesion with an intraductal growth type, sized at 3.6 cm×4.1 cm, on their liver. […] They were diagnosed with cholangiocarcinoma.

lung cancer = assay: Case Study 14; assay type: in vivo, human
Method: A person presented with cough and chest pains that persisted over 6 months. In that time, they also lost 6 kg of weight. In the last 20 days, the patient developed hemoptysis, which lead them to hospitalization. […] They also had total opacification of the right lung. The patient was diagnosed with lung cancer and sent home. The patient was treated with 3-50 mg Zinc Iodide capsules/day for 120 days. After 5 days, their breathing capabilities and cough improved.

[4] = test system: pancreatic adenocarcinoma; assay: Case Study 16; assay type: in vivo, human
Method: A person presented symptoms of abdominal pain, nausea, and vomiting. […] They also had multiple metastases on their liver. They were diagnosed with pancreatic adenocarcinoma. Their CA 19-9 (levels of tumor-associated antigens in the blood) was 365 U/mL. The patient was treated through infusion with 200 mg of zinc Iodide mixing with 1000 mL of 0.9% sodium chloride solution and 10 mL of DMSO. The symptoms presented improved after 2 days of treatment. […] After 35 days on the treatment, an ultrasound was taken of the pancreas. The tumor had decreased to 4.3 cm×5.2 cm. Their CA 19-9 levels decreased to 168 U/mL. After 40 treatments, the patient began treatment orally; they were given 50 mg zinc iodide capsules 3 times/day. After 155 days on the oral treatment, a CT of their pancreas was taken. The tumor decreased to 2.4 cm×3.6 cm. The liver metastasis decreased by 50% also.

[5] = test system: stage IV breast cancer metastasized to lungs and brain; assay: Case Study 3; assay type: in vivo, human
Method: A patient was diagnosed with stage IV breast cancer and invasive ductal carcinoma metastasized to multiple organs (lungs and brain). […] They then took 3 dosages of 50 mg of zinc iodide per day orally. A chest ray was taken 61 days after the start of treatment, as shown the lung metastases decreased by more than 60%.

Case Study 15 = assay type: in vivo, human
Method: Due to this, they were hospitalized 4-5 times/year. For 3 years, they used a corticosteroid inhaler, bronchodilator, antibiotics and COPD medication to no avail. They were also taking hypertension medication as a result of the COPD treatment. Their blood pressure was 160/96 and Forced Expiratory Volume (FEV1) at 58%. The patient was treated with 3-50 mg Zn Iodide capsules/day. […] […] (FEV1) was 67% and their blood pressure decreased to 130/90. […] Even though they were not taking COPD medication, there were no signs of infections either.

[6] = MTT assays; salicylic acid alone
[7] = after further 90 days of oral treatment
[8] = 105 days after the beginning of treatment
[9] = 61 days after the start of treatment

Compound `[I][Zn][I]` [Zinc Iodide, zinc iodide] has a GOT (liver cancer; after 10 days, GOT before treatment 326) of 224 IU/L, a blood glucose level (liver cancer; after 10 days, before treatment 8.5) of 7.6 mmol/L and a GGT (liver cancer; after 10 days, before treatment 251) of 93 IU/L. For the same compound, the GPT (liver cancer; after 10 days, before treatment 293) was 187 IU/L, the AFP (liver cancer; after 10 days, before treatment 1450) was 1209 IU/L and the AFP (liver cancer; after 21 days) was 678 IU/L. It also gave a GGT (liver cancer; after 21 days) of 124 IU/L, a GOT (liver cancer; after 21 days) of 146 IU/L and a GPT (liver cancer; after 21 days) of 126 IU/L. The blood glucose level (liver cancer; after 21 days) was 6.7 mmol/L, the AFP (liver cancer; [7]) was 107 IU/L and the GGT (liver cancer; [7]) was 115 IU/L. The GOT (liver cancer; [7]) was 195 IU/L, the GPT (liver cancer; [7]) was 69 IU/L and the blood glucose level (liver cancer; [7]) was 7.4 mmol/L. For the same compound, the abdominal pain (liver cancer; within 5 days) was “disappeared”, the lymph nodes ([1]; 105th day) was “clear of metastases” and the fever and pain ([1]; after 3 days) was “no symptoms of fever or pain”. The general health ([1]; after 3 days) was “improved”, the eating and drinking ([1]; within 3 weeks) was “could eat and drink normally” and the “CA 19-9 level” value ([2]; 63rd day) was 46 U/mL. For the same compound, the liver metastases ([2]; 63rd day) was “no indications of liver metastases”, the symptoms ([2]; after treatment) was “symptom free” and the total bilirubin ([2]; at 10 days, before treatment 78) was 56. It also gave an AST ([2]; at 10 days, before treatment 113) of 73 U/L, a GGT ([2]; at 10 days, before treatment 149) of 149 U/L and an ALT ([2]; at 10 days, before treatment 187) of 73 U/L. The “CA 19-9” value ([2]; at 10 days, before treatment 385) was 184 U/L, the body weight gained ([2]; during oral treatment) was 4 kg and the pain ([2]; within 7 days) was “completely disappeared”. For the same compound, the “RBC, hemoglobin and serum calcium levels” value ([3]; after oral treatment) was “normalized”, the symptoms ([3]; after oral treatment) was “no symptoms” and the “ultrasound and x-ray scans” value ([3]; after oral treatment) was “no abnormalities”. The PSA ([3]; after oral treatment, before treatment 260) was 40 ng/mL, the pain medication ([3]; by day 20) was “stopped all pain medication” and the RBC count ([3]; day 20, before treatment 3.2) was 4.2 million cells/uL. The serum calcium levels ([3]; day 20, before treatment 3.5) was 2.5 mmol/L, the hemoglobin ([3]; day 20, before treatment 9) was 10.7 g/dL and the pain improvement ([3]; within 7 days) was 70%. The GGT levels (cholangiocarcinoma; 105 days) was 784 U/L, the GOT levels (cholangiocarcinoma; 105 days) was 67 U/L and the GPT levels (cholangiocarcinoma; 105 days) was 54 U/L. The total bilirubin (cholangiocarcinoma; 105 days) was 28, the symptoms (cholangiocarcinoma; [8]) was “no longer experienced symptoms” and the weight gained (cholangiocarcinoma; [8]) was 4 kg. The GPT (cholangiocarcinoma; after 10 days, before treatment 127) was 97 U/L, the total bilirubin (cholangiocarcinoma; after 10 days, before treatment 139) was 75 and the GOT (cholangiocarcinoma; after 10 days, before treatment 163) was 121 U/L. The GGT (cholangiocarcinoma; after 10 days, before treatment 1410) was 1267 U/L, the GGT (cholangiocarcinoma; at 21 days) was 978 U/L and the GOT (cholangiocarcinoma; at 21 days) was 85 U/L. The GPT (cholangiocarcinoma; at 21 days) was 193 U/L, the jaundice (cholangiocarcinoma; at 21 days) was “improved” and the total bilirubin (cholangiocarcinoma; at 21 days) was 56. The digestive health (cholangiocarcinoma; within 5 days) was “improved significantly”, the “breathing capabilities and cough” value (lung cancer; after 5 days) was “improved” and the “clearance of opacification (CT)” value (lung cancer; after 121 days) was 80%. For the same compound, the blood in sputum (lung cancer; by 12 days) was “no longer had blood in their sputum”, the symptoms ([4]; after 2 days of treatment) was “improved” and the “CA 19-9 levels” value ([4]; after 35 days, before treatment 365) was 168 U/mL. The “decrease of liver metastasis” value ([4]; after 155 days on the oral treatment) was 50%, the symptoms ([4]; by the 5th day) was “almost symptom-free” and the “decrease of lung metastases” value [5, 9] was “more than 60%”. For the same compound, the “reduction of brain metastases (MRI)” value [5, 9] was 50%, the “symptoms of coughing, headache and nausea” value ([5]; over 12 days of infusion) was “gradually improved” and the “Forced Expiratory Volume (FEV1)” value (Case Study 15; 92 days after first treatment) was 75%. The blood pressure (Case Study 15; 92 days after first treatment) was 125/90, the shortness of breath (Case Study 15; 92 days after first treatment) was “no longer had shortness of breath” and the “need for fast acting bronchodilator inhalers” value (Case Study 15; after 3 days) was “no longer needed fast acting bronchodilator inhalers”. For the same compound, the COPD related symptoms (Case Study 15; at 30 days) was “remarkable improvement”, the “Forced Expiratory Volume (FEV1)” value (Case Study 15; at 30 days, before treatment 58%) was 67% and the blood pressure (Case Study 15; at 30 days, before treatment 160/96) was 130/90. For the same compound, the COPD related episodes (Case Study 15; in the following 2 months) was “did not have any COPD related episodes” and the “need for corticosteroid inhalers” value (Case Study 15; within 10 days) was “no longer needed corticosteroid inhalers”.

For `O=C(O)c1ccccc1O` [salicylic acid], the cellular activity [6] was “no effect on cellular activity”.
